Data reported in patent US12187701B2, “Taire family kinase inhibitors and uses thereof” (Dana-Farber Cancer Institute, Inc., priority 2018, dated 2025).

These compounds were tested against Cdk14/CycY (Homo sapiens (Human), UniProt O94921) (assay: Lanthascreen Eu kinase binding assay for Cdk14/CycY with 30 minute pre-incubation). Details: 30 minute pre-incubation of kinase with compound; read-out: IC50 CDK14 binding by Lanthascreen.
Protocol: Lanthascreen Eu kinase binding assays were conducted for Cdk14/CycY largely as performed in the commercial assay service by Life Technologies, but included a 30 minute pre-incubation step of the kinase with candidate compounds to facilitate covalent bond formation.

Chain of Cdk14/CycY (O94921 whole entry): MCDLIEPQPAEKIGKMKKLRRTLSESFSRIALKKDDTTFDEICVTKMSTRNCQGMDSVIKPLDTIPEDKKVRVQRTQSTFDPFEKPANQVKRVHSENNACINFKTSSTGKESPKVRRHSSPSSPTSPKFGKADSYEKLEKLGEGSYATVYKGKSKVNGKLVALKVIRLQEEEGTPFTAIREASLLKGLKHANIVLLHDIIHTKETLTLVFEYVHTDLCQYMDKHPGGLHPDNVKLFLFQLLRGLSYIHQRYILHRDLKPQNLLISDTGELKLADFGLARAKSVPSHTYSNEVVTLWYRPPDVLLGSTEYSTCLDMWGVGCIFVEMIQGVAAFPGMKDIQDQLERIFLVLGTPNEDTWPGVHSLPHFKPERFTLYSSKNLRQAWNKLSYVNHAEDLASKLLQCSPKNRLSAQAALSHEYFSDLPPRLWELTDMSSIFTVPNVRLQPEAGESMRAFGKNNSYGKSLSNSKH
Chain of Cdk14/CycY (Q8ND76 whole entry partner): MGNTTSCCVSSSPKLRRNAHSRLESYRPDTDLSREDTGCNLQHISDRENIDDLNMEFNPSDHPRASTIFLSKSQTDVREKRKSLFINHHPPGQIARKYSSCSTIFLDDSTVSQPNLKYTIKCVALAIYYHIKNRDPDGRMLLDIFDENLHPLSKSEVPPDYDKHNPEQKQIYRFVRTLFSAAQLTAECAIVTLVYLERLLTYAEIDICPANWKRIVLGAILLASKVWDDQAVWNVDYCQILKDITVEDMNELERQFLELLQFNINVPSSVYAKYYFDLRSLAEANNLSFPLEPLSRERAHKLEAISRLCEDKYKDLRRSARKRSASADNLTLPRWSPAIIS

In order of rising IC50:
1. CN(C/C=C/C(=O)Nc1cccc(S(=O)(=O)N2CCC(NC(=O)c3n[nH]cc3NC(=O)c3c(Cl)cccc3Cl)CC2)c1)CCC(=O)NCCOCCOCCOCCNC(=O)CCCC[C@@H]1SC[C@@H]2NC(=O)N[C@@H]21 [FMF-04-153-1, 4-(2,6-dichlorobenzamido)-N-(1-((3-((E)-5-methyl-8,22-dioxo-26-((3aS,4S,6aR)-2-oxohexahydro-1H-thieno[3,4-d]imidazol-4-yl)-12,15,18-trioxa-5,9,21-triazahexacos-2-enamido)phenyl)sulfonyl)piperidin-4-yl)-1H-pyrazole-3-carboxamide]  8 nM
2. COc1cccc(Cl)c1C(=O)Nc1c[nH]nc1C(=O)NC1CCN(S(=O)(=O)c2cccc(NC(=O)/C=C/CN(C)CCC(=O)NCCOCCOCCOCCNC(=O)CCCCC[C@H]3NC(=O)N[C@H]3C)c2)CC1 [FMF-05-035-1, 4-(2-chloro-6-methoxybenzamido)-N-(1-((3-((E)-5-methyl-27-((4R,5S)—5-methyl-2-oxoimidazolidin-4-yl)-8,22-dioxo-12,15,18-trioxa-5,9,21-triazaheptacos-2-enamido)phenyl)sulfonyl)piperidin-4-yl)-1H-pyrazole-3-carboxamide]  46 nM
3. CN(/C=C/C(=O)Nc1cccc(CN2CCC(NC(=O)c3n[nH]cc3NC(=O)c3c(Cl)cccc3Cl)CC2)c1)CCCCC1C[C@@H]2NC(=O)N[C@@H]2S1 (some centres unmarked) [FMF-04-131-1]  49 nM

These compounds were tested on HCT116 cells (assay: Antiproliferation assay, Cell Titer Glo, 72 hours). Details: Homo sapiens, HCT-116, 72 h.
Assay type: cell-based
Protocol: HCT116 cells were plated in 384-well plates at 750 cells/well in 50 ul fresh media (McCoy's 5A+10% FBS+1% Penn/Strep) and treated with 0.1 μl candidate compounds in four-fold dilution series using the Janus pinner. Cells were incubated with compounds for 72 hours in 37° C. 5% CO2. Anti-proliferative effects of these compounds were assessed 72 hours after compound addition using Cell Titer Glo (Promega cat #G7571) as described in product manual by luminescence measurements using an Envision platereader. All proliferation assays were performed in biological quadruplicate. IC50 values were determined using a non-linear regression curve fit in GraphPad Prism 6.

First: C=CC(=O)Nc1cccc(S(=O)(=O)N2CCC(NC(=O)c3n[nH]cc3NC(=O)c3c(Cl)cccc3OC)CC2)c1 [FMF-04-107-1, N-(1-((3-acrylamidophenyl)sulfonyl)piperidin-4-yl)-4-(2-chloro-6-methoxybenzamido)-1H-pyrazole-3-carboxamide]
Second: C=CC(=O)Nc1cccc(S(=O)(=O)N2CCC(NC(=O)c3nn(C)cc3NC(=O)c3c(Cl)cccc3Cl)CC2)c1 [FMF-04-180-1, N-(1-((3-acrylamidophenyl)sulfonyl)piperidin-4-yl)-4-(2,6-dichlorobenzamido)-1-methyl-1H-pyrazole-3-carboxamide]
The IC50 of the first is 78-fold lower: 115 nM for the first, 9000 nM for the second. The first is the more potent here.

First: C=CC(=O)Nc1cccc(N2CCC(NC(=O)c3n[nH]cc3NC(=O)c3c(Cl)cccc3Cl)CC2)c1 [FMF-05-085-1, N-(1-(3-acrylamidophenyl)piperidin-4-yl)-4-(2,6-dichlorobenzamido)-1H-pyrazole-3-carboxamide]
Second: C=CC(=O)Nc1cccc(CN2CCC(NC(=O)c3n[nH]cc3NC(=O)c3c(Cl)cccc3Cl)CC2)c1 [FMF-03-200-1, N-(1-(3-acrylamidobenzyl)piperidin-4-yl)-4-(2,6-dichlorobenzamido)-1H-pyrazole-3-carboxamide]
The IC50 of the first is 100-fold higher: 93 nM for the first, 0.9 nM for the second.

Compared with CN(C)C/C=C/C(=O)Nc1cccc(CN2CCC(NC(=O)c3n[nH]cc3NC(=O)c3c(Cl)cc(Cl)cc3Cl)CC2)c1 [FMF-04-158-2, (E)-N-(1-(3-(4-(dimethylamino)but-2-enamido)benzyl)piperidin-4-yl)-4-(2,4,6-trichlorobenzamido)-1H-pyrazole-3-carboxamide], CN(C)C/C=C/C(=O)Nc1cccc(CNC(=O)c2n[nH]cc2NC(=O)c2c(Cl)cccc2Cl)c1 [FMF-05-067-2, (E)-4-(2,6-dichlorobenzamido)-N-(3-(4-(dimethylamino)but-2-enamido)benzyl)-1H-pyrazole-3-carboxamide] is higher in IC50: 156 nM for the first, > 10000 nM for the second. The first is the more potent here.

CN(C)C/C=C/C(=O)Nc1ccc(S(=O)(=O)N2CCC[C@@H](NC(=O)c3n[nH]cc3NC(=O)c3c(Cl)cccc3Cl)C2)cc1 [FMF-04-056-2, (R,E)-4-(2,6-dichlorobenzamido)-N-(1-((4-(4-(dimethylamino)but-2-enamido)phenyl)sulfonyl)piperidin-3-yl)-1H-pyrazole-3-carboxamide] and CN(C)C/C=C/C(=O)Nc1cccc(S(=O)(=O)N2CCC(NC(=O)c3nn(C)cc3NC(=O)c3c(Cl)cccc3Cl)CC2)c1 [FMF-04-180-2, (E)-4-(2,6-dichlorobenzamido)-N-(1-((3-(4-(dimethylamino)but-2-enamido)phenyl)sulfonyl)piperidin-4-yl)-1-methyl-1H-pyrazole-3-carboxamide] cannot be ordered by IC50: > 10000 nM for the first, > 10000 nM for the second.
